Assay results from patent publication US11628159B2, “Cell-protective compounds and their use” (ETH ZURICH, priority 2017, dated 2023).
“Also recorded” adds a separate entry of the source. Like-named read-outs stand apart in the source and are kept apart here.

T1: GRK2 (Homo sapiens, UniProt P25098)
T1 construct: fused on or other part: hexahistidine tag
T1 sequence (P25098 1-669 limits assumed): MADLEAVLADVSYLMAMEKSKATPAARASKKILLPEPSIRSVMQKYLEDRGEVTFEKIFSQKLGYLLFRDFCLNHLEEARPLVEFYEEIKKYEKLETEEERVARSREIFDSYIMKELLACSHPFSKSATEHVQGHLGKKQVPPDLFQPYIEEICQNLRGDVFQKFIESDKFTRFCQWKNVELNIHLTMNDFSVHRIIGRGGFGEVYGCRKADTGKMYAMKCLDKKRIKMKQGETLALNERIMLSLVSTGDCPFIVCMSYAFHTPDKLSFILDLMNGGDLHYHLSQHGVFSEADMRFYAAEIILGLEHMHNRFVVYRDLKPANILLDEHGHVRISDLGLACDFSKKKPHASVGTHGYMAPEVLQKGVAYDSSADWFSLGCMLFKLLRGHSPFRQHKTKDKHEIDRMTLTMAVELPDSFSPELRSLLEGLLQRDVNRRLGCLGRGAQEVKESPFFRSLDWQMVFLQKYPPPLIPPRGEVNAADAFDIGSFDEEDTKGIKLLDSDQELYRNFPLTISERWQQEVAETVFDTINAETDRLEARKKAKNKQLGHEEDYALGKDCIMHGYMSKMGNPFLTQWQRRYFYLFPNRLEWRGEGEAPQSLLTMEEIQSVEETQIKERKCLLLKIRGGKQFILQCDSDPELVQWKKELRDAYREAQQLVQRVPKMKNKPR


Tests used:
[1] = target: T1, GRK2; assay: In vitro phosphorylation assay: GRK2-mediated phosphorylation of SRSF1 with purified proteins; type: biochemical; details: for IC50: purified proteins
Procedure: The GRK2-mediated phosphorylation of SRSF1 was determined with purified proteins in the presence of increasing concentrations of paroxetine or different small molecule compounds. SRSF1 phosphorylation is presented as % of control, which is the SRSF1 phosphorylation in the absence of inhibitor.
Recombinant human GRK2 protein and GRK2-S670A protein was expressed in and purified from Spodoptera frugiperda (Sf9) cells by the baculoviral expression system. […] Sf9 cells were infected with recombinant baculoviruses at an MOI of 2-3, 48 h after infection cells were harvested by centrifugation, lysed with lysis buffer (300 mM NaCl, 50 mM HEPES, pH 7.5 supplemented with 1% NP40, 1 mM PMSF and protease inhibitor cocktail) and applied to Ni-NTA chromatography. After overnight incubation at 4° C., unbound proteins were removed by washing with lysis buffer (20× column volumes) followed by 1× column volume of 30 mM imidazole-containing lysis buffer. Bound GRK2 was eluted by 300 mM imidazole in lysis buffer, desalted by PD10 column chromatograpy, supplemented with 20% glycerol and stored at −80° C. for further use.
Protein-expressing bacteria were collected by centrifugation, frozen in liquid nitrogen and thawed on ice in lysis buffer (8 M urea, 300 mM NaCl, 50 mM HEPES, 10 mM imidazole, pH 7.5), which was supplemented with 2-mercaptoethanol (0.7 ml/L) freshly before use (10 ml of lysis buffer for a bacterial pellet from 200 ml of culture medium). The bacterial lysate was incubated for 1 h at room temperature, sonicated and centrifuged for 15 min at 4000×g at 4° C. The supernatant was applied to the Ni-NTA column matrix prewashed with 20 ml of lysis buffer. […] Finally, proteins were eluted with elution buffer (300 mM NaCl, 50 mM HEPES, 500 mM imidazole, pH 7.5, supplemented freshly with 0.7 ml/L 2-mercaptoethanol). Buffer of eluted proteins was exchanged to 150 mM NaCl, 50 mM HEPES (pH 7.5) by PD10 column chromatography.
Recombinant proteins were used for an in vitro phosphorylation assay with GRK2 and GRK2-S670A. […] After an incubation for 30 min at 30° C., the reaction was stopped by the addition of 5×SDS-Laemmli buffer. Proteins were separated by SDS-PAGE and subjected to autoradiography. […] After an incubation for 30-60 min at 30° C., the phosphorylation was stopped by the addition of 5 volumes of ice-cold reaction buffer. The reaction mixtures were immediately applied to glass fiber filters (GF/C, WHATMAN™, GE Healthcare Life Sciences, Glattbrugg, Switzerland). After three washing steps with 5 ml of reaction buffer, filter-bound radioactivity was determined in a β-counter.

[2] = tested on: GRK2-mediated phosphorylation of SRSF1/Srsf1; assay: Immunoblot of SRSF1/Srsf1 phosphorylation in isolated neonatal cardiomyocytes from Tg-SRSF1 mice; type: cell-based, mouse; details: 10 microM, 60 h, relative to vehicle
Procedure: A, The GRK2-mediated phosphorylation of SRSF1/Srsf1 was determined by immunoblot in lysates from isolated neonatal cardiomyocytes from Tg-SRSF1 mice after incubation for 60 h with 10 microM of paroxetine, 1-(1,3-benzodioxol-5-yl)-4-(cyclopropane-carbonyl)-3-hydroxy-2-phenyl-2H-pyrrol-5-one (“Compound-1”) or 4-(1,3-benzodioxol-5-yl)pyrimidine (“Compound-4”) relative to vehicle-treated control (“C”) cardiomyocytes. B, Immunoblot detection of GRK2-mediated phosphorylation of SRSF1 (pSRSF1) was performed with lysates from HEK (human embryonic kidney) cells incubated for 60 h with 10 microM of 4-(1,3-benzodioxol-5-yl)pyrimidine (“Compound-4”), 1-(1,3-benzodioxol-5-ylmethyl)-5-(4-chlorophenyl)-2-methyl-pyrrole-3-carboxamide (“Compound-24”) or (4R)-N3-(1,3-benzodioxol-5-ylmethyl)-N4-[[3-(trifluoromethyl)phenyl]-methyl]pyrrolidine-3,4-dicarboxamide (“Compound-5”) relative to vehicle-treated controls (“C”).
Briefly, the hearts were dissected out from 2-3 day-old mice, atria and aorta were removed, and the hearts were transferred into sterile buffer A (137 mM NaCl, 5.36 mM KCl, 0.81 mM MgSO4, 5.55 mM dextrose, 0.44 mM KH2PO4, 0.34 mM Na2HPO4, 20 mM HEPES, 100 U/ml penicillin, 100 microg/ml streptomycin, pH 7.4). […]

[3] = read-out: IC50 value, inhibition of GRK2-mediated SRSF1 phosphorylation

| Molecule | IC50 value lower than that of paroxetine ([1]; GRK2-mediated SRSF1 phosphorylation) | IC50 ([1]; n=4, read-out: IC50 value, inhibition of GRK2-mediated phosphorylation of SRSF1) [nM] | IC50 [1, 3] [nM] | SRSF1/Srsf1 phosphorylation in isolated Tg-SRSF1 cardiomyocytes [2] | Inhibition of the in vitro phosphorylation of SRSF1 by GRK2 ([1]; result in words) |
| --- | --- | --- | --- | --- | --- |
| O=C(C1=C(O)C(c2ccccc2)N(c2ccc3c(c2)OCO3)C1=O)C1CC1 (stereo not shown) [Compound-1, 1-(1,3-benzodioxol-5-yl)-4-(cyclopropane-carbonyl)-3-hydroxy-2-phenyl-2H-pyrrol-5-one] | more than 5 fold | 450 | 450 | decreased | – |
| c1cc(-c2ccc3c(c2)OCO3)ncn1 [Compound-4, 4-(1,3-benzodioxol-5-yl)pyrimidine] | – | – | 1870 | decreased | – |
| RKIP: raf kinase inhibitor protein, a dual-specific GRK2 and Raf kinase inhibitor (protein, UniProt P30086 2-187, looked up) Phosphatidylethanolamine-bindi …: PVDLSKWSGPLSLQEVDEQPQHPLHVTYAGAAVDELGKVLTPTQVKNRPTSISWDGLDSGKLYTLVLTDPDAPSRKDPKYREWHHFLVVNMKGNDISSGTVLSDYVGSGPPKGTGLHRYVWLVYEQDRPLKCDEPILSNRSGDHRGKFKVASFRKKYELRAPVAGTCYQAEWDDYVPKLYEQLSGK | – | – | – | – | does not inhibit; also recorded: did not inhibit |
